# Measured values published in ChEMBL document CHEMBL4390652, “Design, biological evaluation and X-ray crystallography of nanomolar multifunctional ligands targeting simultaneously acetylcholinesterase and glycogen synthase kinase-3” (Eur J Med Chem, 2019).
# Columns and labels:
# [1] = molecular target: Epidermal growth factor receptor (Homo sapiens) (UniProt P00533); assay: Binding affinity to wild-type human partial length EGFR (R669 to V1011 residues) expressed in bacterial expression system assessed as residual binding level at 10 uM by Kinomescan method relative to control
# [2] = molecular target: MAP/microtubule affinity-regulating kinase 3 (Homo sapiens) (UniProt P27448); assay: Binding affinity to wild-type human full length MARK3 (M1 to L729 residues) expressed in bacterial expression system assessed as residual binding level at 10 uM by Kinomescan method relative to control
# [3] = system: Tyrosine-protein kinase ABL1 (Homo sapiens), P00519 [T315I]; assay: Binding affinity to human non-phosphorylated ABL1 T315I mutant (S229 to K512 residues) expressed in mammalian expression system assessed as residual binding level at 10 uM by Kinomescan method relative to control
# [4] = molecular target: Serine/threonine-protein kinase D1 (Homo sapiens) (UniProt Q15139); assay: Binding affinity to wild-type human partial length PRKD1 (G551 to E870 residues) expressed in bacterial expression system assessed as residual binding level at 10 uM by Kinomescan method relative to control
# Serine/threonine-protein kinase D1 (Homo sapiens), sequence (Q15139 whole entry, the tested form may be a part, canonical isoform): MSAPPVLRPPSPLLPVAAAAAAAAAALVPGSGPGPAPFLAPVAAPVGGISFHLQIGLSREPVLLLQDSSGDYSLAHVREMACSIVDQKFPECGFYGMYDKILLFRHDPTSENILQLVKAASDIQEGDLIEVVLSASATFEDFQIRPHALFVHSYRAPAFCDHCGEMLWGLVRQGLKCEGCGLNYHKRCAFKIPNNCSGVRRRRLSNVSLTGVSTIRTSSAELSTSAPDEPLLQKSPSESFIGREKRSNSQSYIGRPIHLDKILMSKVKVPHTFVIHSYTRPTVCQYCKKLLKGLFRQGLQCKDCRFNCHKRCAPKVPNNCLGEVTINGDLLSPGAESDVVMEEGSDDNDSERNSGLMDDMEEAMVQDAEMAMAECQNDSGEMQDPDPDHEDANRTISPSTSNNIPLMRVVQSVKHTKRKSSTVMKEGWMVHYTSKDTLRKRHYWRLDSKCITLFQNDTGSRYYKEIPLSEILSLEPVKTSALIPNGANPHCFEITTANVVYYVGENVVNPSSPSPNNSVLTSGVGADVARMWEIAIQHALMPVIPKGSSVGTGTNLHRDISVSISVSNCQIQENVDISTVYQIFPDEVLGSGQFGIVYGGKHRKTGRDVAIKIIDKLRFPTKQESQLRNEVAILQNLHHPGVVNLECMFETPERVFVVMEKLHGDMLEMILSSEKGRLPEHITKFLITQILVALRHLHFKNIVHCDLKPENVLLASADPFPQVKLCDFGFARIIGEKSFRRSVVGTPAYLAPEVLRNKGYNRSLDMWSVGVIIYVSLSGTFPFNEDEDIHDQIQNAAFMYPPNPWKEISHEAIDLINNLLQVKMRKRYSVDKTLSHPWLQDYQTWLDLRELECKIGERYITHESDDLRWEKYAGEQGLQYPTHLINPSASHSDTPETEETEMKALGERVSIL
# [5] = molecular target: Casein kinase I isoform delta (Homo sapiens) (UniProt P48730); assay: Binding affinity to wild-type human full length CSNK1D (M1 to K409 residues) expressed in bacterial expression system assessed as residual binding level at 10 uM by Kinomescan method relative to control
# [6] = molecular target: Megakaryocyte-associated tyrosine-protein kinase (Homo sapiens) (UniProt P42679); assay: Binding affinity to wild-type human full length CTK (M43 to P508 residues) expressed in mammalian expression system assessed as residual binding level at 10 uM by Kinomescan method relative to control
# Megakaryocyte-associated tyrosine-protein kinase (Homo sapiens), sequence (P42679 whole entry, the tested form may be a part): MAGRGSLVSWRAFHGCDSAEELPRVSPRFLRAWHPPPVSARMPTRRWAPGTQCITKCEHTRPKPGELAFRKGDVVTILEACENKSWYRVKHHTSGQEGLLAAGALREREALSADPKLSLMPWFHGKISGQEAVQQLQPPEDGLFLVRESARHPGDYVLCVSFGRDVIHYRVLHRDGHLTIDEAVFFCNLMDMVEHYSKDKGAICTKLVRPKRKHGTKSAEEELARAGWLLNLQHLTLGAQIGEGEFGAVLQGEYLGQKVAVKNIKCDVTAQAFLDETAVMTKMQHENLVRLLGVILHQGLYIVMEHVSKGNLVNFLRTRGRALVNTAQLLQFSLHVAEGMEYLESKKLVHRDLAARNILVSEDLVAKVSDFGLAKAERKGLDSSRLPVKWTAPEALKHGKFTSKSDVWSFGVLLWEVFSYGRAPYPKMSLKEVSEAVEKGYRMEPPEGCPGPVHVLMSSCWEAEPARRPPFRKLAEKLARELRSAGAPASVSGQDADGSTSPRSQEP
# [7] = molecular target: Ephrin type-A receptor 3 (Homo sapiens) (UniProt P29320); assay: Binding affinity to wild-type human partial length EPHA3 (D604 to K889 residues) expressed in bacterial expression system assessed as residual binding level at 10 uM by Kinomescan method relative to control
# [8] = molecular target: Casein kinase I isoform gamma-3 (Homo sapiens) (UniProt Q9Y6M4); assay: Binding affinity to wild-type human full length CSNK1G3 (M1 to K447 residues) expressed in bacterial expression system assessed as residual binding level at 10 uM by Kinomescan method relative to control
# Casein kinase I isoform gamma-3 (Homo sapiens), sequence (Q9Y6M4 whole entry, looked up, the tested form may be a part, canonical isoform): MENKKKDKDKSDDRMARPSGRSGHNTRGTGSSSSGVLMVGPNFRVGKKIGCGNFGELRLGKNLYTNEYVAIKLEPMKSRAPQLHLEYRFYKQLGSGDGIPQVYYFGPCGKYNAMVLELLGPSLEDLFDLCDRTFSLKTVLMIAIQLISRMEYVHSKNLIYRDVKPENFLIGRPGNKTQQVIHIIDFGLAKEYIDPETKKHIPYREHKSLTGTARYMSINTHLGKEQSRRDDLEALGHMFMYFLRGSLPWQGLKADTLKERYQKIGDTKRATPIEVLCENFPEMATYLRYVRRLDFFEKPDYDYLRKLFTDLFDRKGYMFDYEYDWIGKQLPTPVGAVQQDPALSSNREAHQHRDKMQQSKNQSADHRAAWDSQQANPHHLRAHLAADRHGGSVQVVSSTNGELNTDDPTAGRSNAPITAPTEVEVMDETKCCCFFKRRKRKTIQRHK
# [9] = molecular target: Serine/threonine-protein kinase SIK3 (Homo sapiens) (UniProt Q9Y2K2); assay: Binding affinity to wild-type human partial length QSK (A90 to L395 residues) expressed in mammalian expression system assessed as residual binding level at 10 uM by Kinomescan method relative to control
# Serine/threonine-protein kinase SIK3 (Homo sapiens), sequence (Q9Y2K2 whole entry, looked up, the tested form may be a part): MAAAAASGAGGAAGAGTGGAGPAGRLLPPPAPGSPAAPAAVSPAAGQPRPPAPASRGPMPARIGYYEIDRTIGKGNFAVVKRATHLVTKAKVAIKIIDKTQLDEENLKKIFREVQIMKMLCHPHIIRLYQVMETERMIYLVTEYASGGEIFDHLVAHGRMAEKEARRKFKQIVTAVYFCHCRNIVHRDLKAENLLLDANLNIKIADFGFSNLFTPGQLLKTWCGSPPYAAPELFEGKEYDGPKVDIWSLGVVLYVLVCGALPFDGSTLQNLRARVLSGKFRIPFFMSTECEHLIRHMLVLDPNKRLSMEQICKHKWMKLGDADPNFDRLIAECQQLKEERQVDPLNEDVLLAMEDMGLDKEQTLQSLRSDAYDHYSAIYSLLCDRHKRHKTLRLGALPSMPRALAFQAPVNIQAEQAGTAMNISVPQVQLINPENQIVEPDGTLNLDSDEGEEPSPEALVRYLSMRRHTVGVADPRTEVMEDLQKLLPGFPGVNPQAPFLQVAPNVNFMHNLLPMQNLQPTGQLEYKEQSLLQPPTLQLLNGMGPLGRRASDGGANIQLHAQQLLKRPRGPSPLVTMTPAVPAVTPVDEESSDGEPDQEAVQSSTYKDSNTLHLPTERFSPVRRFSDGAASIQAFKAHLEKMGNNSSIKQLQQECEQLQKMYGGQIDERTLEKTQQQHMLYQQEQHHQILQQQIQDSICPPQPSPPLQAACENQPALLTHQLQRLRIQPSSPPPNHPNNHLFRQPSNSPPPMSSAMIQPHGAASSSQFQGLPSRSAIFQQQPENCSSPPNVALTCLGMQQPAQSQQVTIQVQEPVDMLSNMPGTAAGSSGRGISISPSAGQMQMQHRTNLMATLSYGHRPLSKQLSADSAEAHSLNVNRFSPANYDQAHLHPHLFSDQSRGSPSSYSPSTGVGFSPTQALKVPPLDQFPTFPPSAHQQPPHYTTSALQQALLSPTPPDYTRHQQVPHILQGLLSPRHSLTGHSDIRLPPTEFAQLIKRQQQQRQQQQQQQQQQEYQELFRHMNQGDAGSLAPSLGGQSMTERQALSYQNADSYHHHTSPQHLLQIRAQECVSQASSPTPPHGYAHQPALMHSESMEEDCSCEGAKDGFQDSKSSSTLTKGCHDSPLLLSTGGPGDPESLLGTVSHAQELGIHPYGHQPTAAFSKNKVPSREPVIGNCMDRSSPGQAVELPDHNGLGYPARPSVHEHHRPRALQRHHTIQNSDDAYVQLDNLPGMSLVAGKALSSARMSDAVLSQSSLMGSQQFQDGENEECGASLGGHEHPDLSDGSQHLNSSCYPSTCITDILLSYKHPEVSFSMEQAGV
# [10] = molecular target: Activin receptor type-2B (Homo sapiens) (UniProt Q13705); assay: Binding affinity to wild-type human ACVR2B (H169 to D504 residues) expressed in bacterial expression system assessed as residual binding level at 10 uM by Kinomescan method relative to control
# [11] = molecular target: Mitogen-activated protein kinase 12 (Homo sapiens) (UniProt P53778); assay: Binding affinity to wild-type human full length p38-gamma (M1 to L367 residues) expressed in mammalian expression system assessed as residual binding level at 10 uM by Kinomescan method relative to control
# [12] = molecular target: Serine/threonine-protein kinase BRSK1 (Homo sapiens) (UniProt Q8TDC3); assay: Binding affinity to wild-type human partial length BRSK1 (M1 to E754 residues) expressed in bacterial expression system assessed as residual binding level at 10 uM by Kinomescan method relative to control
# Serine/threonine-protein kinase BRSK1 (Homo sapiens), sequence (Q8TDC3 whole entry, the tested form may be a part): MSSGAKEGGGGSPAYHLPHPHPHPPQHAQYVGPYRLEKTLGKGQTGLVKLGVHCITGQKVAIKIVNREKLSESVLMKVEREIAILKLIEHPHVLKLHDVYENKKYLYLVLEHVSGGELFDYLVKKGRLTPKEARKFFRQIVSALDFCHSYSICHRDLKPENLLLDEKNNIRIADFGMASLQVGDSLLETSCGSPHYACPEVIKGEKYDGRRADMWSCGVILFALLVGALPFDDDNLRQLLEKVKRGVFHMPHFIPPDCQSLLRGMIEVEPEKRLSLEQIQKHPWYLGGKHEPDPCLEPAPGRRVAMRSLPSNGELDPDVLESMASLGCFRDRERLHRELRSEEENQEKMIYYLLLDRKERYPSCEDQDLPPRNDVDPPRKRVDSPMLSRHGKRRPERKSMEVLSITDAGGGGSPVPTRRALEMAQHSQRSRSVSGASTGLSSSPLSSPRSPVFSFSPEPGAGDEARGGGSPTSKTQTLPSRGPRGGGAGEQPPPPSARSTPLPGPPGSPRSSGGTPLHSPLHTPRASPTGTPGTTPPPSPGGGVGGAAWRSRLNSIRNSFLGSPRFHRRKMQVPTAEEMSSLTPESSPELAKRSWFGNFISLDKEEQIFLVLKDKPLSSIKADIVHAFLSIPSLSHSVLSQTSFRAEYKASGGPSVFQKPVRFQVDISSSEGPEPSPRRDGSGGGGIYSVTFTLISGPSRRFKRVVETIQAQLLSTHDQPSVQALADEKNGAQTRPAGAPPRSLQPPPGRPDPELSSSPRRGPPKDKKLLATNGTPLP
# [13] = molecular target: BDNF/NT-3 growth factors receptor (Homo sapiens) (UniProt Q16620); assay: Binding affinity to wild-type human partial length TRKB (Q547 to G838 residues) expressed in mammalian expression system assessed as residual binding level at 10 uM by Kinomescan method relative to control
# BDNF/NT-3 growth factors receptor (Homo sapiens), sequence (Q16620 32-822 limits assumed): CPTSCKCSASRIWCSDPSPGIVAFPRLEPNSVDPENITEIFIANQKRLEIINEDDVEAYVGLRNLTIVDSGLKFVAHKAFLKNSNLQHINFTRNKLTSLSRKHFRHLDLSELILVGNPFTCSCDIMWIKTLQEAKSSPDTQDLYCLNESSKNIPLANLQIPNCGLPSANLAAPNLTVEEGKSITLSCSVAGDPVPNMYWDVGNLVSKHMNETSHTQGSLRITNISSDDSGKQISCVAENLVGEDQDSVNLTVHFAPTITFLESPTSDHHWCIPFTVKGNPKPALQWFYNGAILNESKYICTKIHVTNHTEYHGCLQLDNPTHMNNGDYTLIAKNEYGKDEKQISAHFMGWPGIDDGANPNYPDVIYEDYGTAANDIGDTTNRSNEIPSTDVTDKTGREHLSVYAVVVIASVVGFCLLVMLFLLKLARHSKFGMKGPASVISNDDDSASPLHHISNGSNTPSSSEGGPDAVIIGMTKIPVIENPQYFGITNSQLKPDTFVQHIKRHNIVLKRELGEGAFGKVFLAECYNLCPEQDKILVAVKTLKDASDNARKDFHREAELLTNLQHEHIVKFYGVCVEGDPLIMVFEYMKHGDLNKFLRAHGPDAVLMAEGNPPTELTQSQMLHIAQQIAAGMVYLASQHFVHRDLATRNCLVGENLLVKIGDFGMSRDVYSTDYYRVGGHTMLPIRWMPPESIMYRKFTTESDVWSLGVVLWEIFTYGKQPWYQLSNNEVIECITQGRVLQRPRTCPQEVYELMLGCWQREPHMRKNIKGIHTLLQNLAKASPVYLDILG
# [14] = molecular target: Receptor-interacting serine/threonine-protein kinase 1 (Homo sapiens) (UniProt Q13546); assay: Binding affinity to wild-type human partial length RIPK1 (M1 to K305 residues) expressed in bacterial expression system assessed as residual binding level at 10 uM by Kinomescan method relative to control
# [15] = molecular target: cGMP-dependent protein kinase 1 (Homo sapiens) (UniProt Q13976); assay: Binding affinity to wild-type human partial length PRKG1 (L339 to F686 residues) expressed in bacterial expression system assessed as residual binding level at 10 uM by Kinomescan method relative to control
# [16] = molecular target: Death-associated protein kinase 3 (Homo sapiens) (UniProt O43293); assay: Binding affinity to wild-type human partial length DAPK3 (M1 to A277 residues) expressed in bacterial expression system assessed as residual binding level at 10 uM by Kinomescan method relative to control
# [17] = molecular target: Epithelial discoidin domain-containing receptor 1 (Homo sapiens) (UniProt Q08345); assay: Binding affinity to wild-type human partial length DDR1 (R565 to V876 residues) expressed in bacterial expression system assessed as residual binding level at 10 uM by Kinomescan method relative to control
smiles,measurement,setting,value
O=C(Nc1cc(-c2cn(CCNc3c4c(nc5ccccc35)CCCC4)nn2)ccn1)Nc1cccc2c1C1CCCCN1C2=O (racemic),Activity,[1],79%
same,Activity,[2],91%
same,Activity,[3],18%
same,Activity,[4],24%
same,Activity,[5],2.8%
same,Activity,[6],100%
same,Activity,[7],77%
same,Activity,[8],80%
same,Activity,[9],23%
same,Activity,[10],100%
same,Activity,[11],5.7%
same,Activity,[12],66%
same,Activity,[13],17%
same,Activity,[14],3.3%
same,Activity,[15],92%
same,Activity,[16],66%
same,Activity,[17],0.3%
